pIC50: −log10 of the molar value.
How the values were obtained:
PC-3 = test: cells; settings: Homo sapiens, PC-3, 48 h
Description: Cytotoxicity against human PC-3 cells assessed as reduction in cell viability after 48 hrs by MTT assay

MGC-803 = test: cells; settings: Homo sapiens, MGC-803, 48 h
Description: Cytotoxicity against human MGC-803 cells assessed as reduction in cell viability after 48 hrs by MTT assay

ECa-109 cell line = test: cells; settings: Homo sapiens, ECa-109, 48 h
Description: Cytotoxicity against human EC-109 cells assessed as reduction in cell viability after 48 hrs by MTT assay

B16-F10 = test: cells; settings: Mus musculus, B16-F10, 48 h
Description: Cytotoxicity against mouse B16-F10 cells assessed as reduction in cell viability after 48 hrs by MTT assay

[1] = molecular target: Cyclin-dependent kinase 1 (Homo sapiens) (UniProt P06493); test: Inhibition of CDK1 (unknown origin) at 20 uM relative to control
[2] = molecular target: T1, Lysine-specific histone demethylase 1A (Homo sapiens, UniProt O60341); test: biochemical
Description: Inhibition of recombinant human LSD1 (157 to 852 residues) expressed in Escherichia coli BL21 (DE) cells using H3K4me2 substrate incubated for 30 mins by amplex red assay

[3] = molecular target: T1, Lysine-specific histone demethylase 1A; test: Inhibition of LSD1 in human MGC803 assessed as reduction in H3K4me2 protein expression incubated for 24 hrs by Western blot analysis; settings: MGC-803, dose 10-40 µM
[4] = molecular target: Cyclin-dependent kinase 2 (Homo sapiens) (UniProt P24941); test: Inhibition of CDK2 (unknown origin) at 20 uM relative to control
[5] = molecular target: Cyclin-dependent kinase 6 (Homo sapiens) (UniProt Q00534); test: Inhibition of CDK6 (unknown origin) at 20 uM relative to control
[6] = molecular target: T1, Lysine-specific histone demethylase 1A
MAO-A = molecular target: T2, MAO-A (Homo sapiens, UniProt P21397); test: Inhibition of MAO-A (unknown origin) at 20 uM relative to control
T2 sequence (P21397 whole entry): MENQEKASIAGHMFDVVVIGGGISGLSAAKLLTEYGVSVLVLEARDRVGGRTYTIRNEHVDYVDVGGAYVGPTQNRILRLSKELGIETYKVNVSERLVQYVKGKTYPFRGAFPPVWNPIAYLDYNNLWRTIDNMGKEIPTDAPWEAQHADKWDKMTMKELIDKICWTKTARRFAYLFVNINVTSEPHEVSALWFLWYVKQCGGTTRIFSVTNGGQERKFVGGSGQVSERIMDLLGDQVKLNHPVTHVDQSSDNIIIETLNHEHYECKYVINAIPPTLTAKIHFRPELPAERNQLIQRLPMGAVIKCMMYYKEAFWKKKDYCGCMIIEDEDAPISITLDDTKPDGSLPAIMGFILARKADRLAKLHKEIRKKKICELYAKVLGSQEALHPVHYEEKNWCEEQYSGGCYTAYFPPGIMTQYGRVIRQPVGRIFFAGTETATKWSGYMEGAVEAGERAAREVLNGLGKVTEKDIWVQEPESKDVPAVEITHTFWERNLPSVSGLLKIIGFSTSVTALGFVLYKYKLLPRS

MAO-B = molecular target: T3, MAO-B (Homo sapiens, UniProt P27338); test: Inhibition of MAO-B (unknown origin) at 20 uM relative to control
T3 sequence (P27338 whole entry): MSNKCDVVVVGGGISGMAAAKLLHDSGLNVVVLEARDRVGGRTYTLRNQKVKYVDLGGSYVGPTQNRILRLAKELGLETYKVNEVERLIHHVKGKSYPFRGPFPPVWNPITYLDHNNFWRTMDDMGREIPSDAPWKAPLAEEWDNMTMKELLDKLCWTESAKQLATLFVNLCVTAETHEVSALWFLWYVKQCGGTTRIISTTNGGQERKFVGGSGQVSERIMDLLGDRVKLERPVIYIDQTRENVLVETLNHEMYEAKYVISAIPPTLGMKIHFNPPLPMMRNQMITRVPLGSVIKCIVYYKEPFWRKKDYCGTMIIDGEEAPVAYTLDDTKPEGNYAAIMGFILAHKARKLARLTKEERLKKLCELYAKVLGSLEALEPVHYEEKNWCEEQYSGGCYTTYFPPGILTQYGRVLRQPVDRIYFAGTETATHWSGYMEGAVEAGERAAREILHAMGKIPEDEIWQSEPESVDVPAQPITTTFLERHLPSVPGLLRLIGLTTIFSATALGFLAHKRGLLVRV

[7] = molecular target: Tyrosine-protein kinase BTK (Homo sapiens) (UniProt Q06187); test: Inhibition of BTK (unknown origin) at 20 uM relative to control
Tyrosine-protein kinase BTK (Homo sapiens), sequence (Q06187 whole entry): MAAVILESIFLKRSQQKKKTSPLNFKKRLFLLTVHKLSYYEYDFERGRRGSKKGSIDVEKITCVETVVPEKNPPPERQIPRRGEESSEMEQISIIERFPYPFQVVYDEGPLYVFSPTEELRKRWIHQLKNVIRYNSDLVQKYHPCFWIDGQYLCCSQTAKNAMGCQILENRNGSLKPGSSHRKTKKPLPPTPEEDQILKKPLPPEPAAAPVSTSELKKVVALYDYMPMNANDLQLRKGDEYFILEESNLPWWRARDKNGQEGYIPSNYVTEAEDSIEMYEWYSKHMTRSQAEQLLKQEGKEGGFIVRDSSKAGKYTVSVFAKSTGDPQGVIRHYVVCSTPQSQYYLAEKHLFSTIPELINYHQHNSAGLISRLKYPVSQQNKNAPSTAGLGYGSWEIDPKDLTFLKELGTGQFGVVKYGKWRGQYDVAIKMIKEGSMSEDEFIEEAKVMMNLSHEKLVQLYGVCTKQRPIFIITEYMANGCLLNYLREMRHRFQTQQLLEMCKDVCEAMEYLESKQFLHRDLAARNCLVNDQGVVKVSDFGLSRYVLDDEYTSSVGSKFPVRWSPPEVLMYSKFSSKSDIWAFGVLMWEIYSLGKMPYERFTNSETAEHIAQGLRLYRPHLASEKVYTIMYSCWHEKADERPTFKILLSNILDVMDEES

Cyclin-dependent kinase 6 (Homo sapiens), sequence (Q00534 whole entry): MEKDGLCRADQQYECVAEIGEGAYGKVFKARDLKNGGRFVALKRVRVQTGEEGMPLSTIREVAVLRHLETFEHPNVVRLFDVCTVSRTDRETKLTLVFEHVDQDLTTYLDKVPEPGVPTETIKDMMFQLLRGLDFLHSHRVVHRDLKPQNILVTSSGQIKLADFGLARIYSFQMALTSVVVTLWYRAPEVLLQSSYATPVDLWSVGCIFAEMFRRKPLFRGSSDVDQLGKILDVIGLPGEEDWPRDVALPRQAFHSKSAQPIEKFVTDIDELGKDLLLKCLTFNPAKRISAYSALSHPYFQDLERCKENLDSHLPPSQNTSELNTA
Cyclin-dependent kinase 1 (Homo sapiens), sequence (P06493 whole entry, looked up): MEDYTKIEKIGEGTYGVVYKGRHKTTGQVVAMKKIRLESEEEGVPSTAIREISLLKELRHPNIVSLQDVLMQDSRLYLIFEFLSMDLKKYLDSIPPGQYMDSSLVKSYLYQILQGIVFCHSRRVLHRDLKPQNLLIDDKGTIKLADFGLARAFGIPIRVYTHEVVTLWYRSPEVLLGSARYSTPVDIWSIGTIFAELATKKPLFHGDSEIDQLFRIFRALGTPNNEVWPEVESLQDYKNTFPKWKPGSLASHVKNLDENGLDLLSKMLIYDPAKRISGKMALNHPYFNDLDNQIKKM

| pIC50 (PC-3) | pIC50 (MGC-803) | pIC50 (ECa-109 cell line) | pIC50 (B16-F10) | inhibition [1] [%] | pIC50 [2] | inhibition [3] | inhibition [4] [%] | inhibition [5] [%] | Ratio IC50 [6] | inhibition at 20 µM (MAO-A) [%] | inhibition at 20 µM (MAO-B) [%] | inhibition [7] [%] | SMILES |
| --- | --- | --- | --- | --- | --- | --- | --- | --- | --- | --- | --- | --- | --- |
| 4.81 | 4.69 | 4.71 | < 4.19 |  |  |  |  |  |  |  |  |  | CCCSc1nc2c(nnn2CCNC(=S)Nc2ccc(OC)cc2)c(=O)[nH]1 |
| 4.63 | 4.59 | < 4.19 | 4.85 |  |  |  |  |  |  |  |  |  | CCCSc1nc2c(nnn2CCNC(=S)Nc2ccccc2Cl)c(=O)[nH]1 |
| 5.04 | 5.08 | 5.01 | 4.94 | < 10 | 5.01 | Dose-dependent effect | < 10 | 20 | 3 | 3.9 | 11.8 | < 10 | CCCSc1nc2c(nnn2CCNC(=S)Nc2cccc3ccccc23)c(=O)[nH]1 |
| 4.59 | 4.33 | < 4.19 | < 4.19 |  |  |  |  |  |  |  |  |  | CCCSc1nc2c(nnn2CCNC(=S)NCc2ccccc2)c(=O)[nH]1 |
